# Source: PubChem BioAssay AID248 (DTP/NCI, 2004)
# Where “and” joins values, the source holds several entries; their conditions need not be identical. Identical values can stand only once. Toxic doses and inconclusive results are not listed.
# Test system: L1210 leukemia ip in BDF1 mice, survival T/C
# Test: NCI In Vivo Anticancer Drug Screen. Data for tumor model L1210 Leukemia (intraperitoneal) in B6D2F1 (BDF1) mice
# Conditions: endpoint: mean survival time, higher = longer survival
# Summary of the method: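 Transplanted-tumor mice were given test agent; controls received vehicle only. Survival readings from the two groups were divided (treated over control).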
# [1] = dose: 100.0 mg/kg/injection, schedule: Q04DX003 (ip), vehicle: saline with Tween-80
# [2] = dose: 200.0 mg/kg/injection, schedule: Q04DX003 (ip), vehicle: saline with Tween-80
# [3] = dose: 100.0 mg/kg/injection, schedule: Q01DX009 (ip), vehicle: saline
# [4] = dose: 100.0 mg/kg/injection, schedule: Q04DX003 (ip), vehicle: saline
# [5] = dose: 200.0 mg/kg/injection, schedule: Q01DX009 (ip), vehicle: saline
# [6] = dose: 200.0 mg/kg/injection, schedule: Q04DX003 (ip), vehicle: saline
# [7] = dose: 400.0 mg/kg/injection, schedule: Q04DX003 (ip), vehicle: saline
structure (smiles),measurement,setting,value
Cn1c(CCCC(=O)O)nc2cc(N(CCCl)CCCl)ccc21,T/C,"dose: 2.5 mg/kg/injection, schedule: Q01DX001 (ip), vehicle: other",101 % of control
same,T/C,"dose: 2.5 mg/kg/injection, schedule: Q01DX009 (ip), vehicle: other",111 % of control
same,T/C,"dose: 4.37 mg/kg/injection, schedule: Q01DX001 (ip), vehicle: saline",106 % of control
same,T/C,"dose: 4.37 mg/kg/injection, schedule: Q04DX003 (ip), vehicle: saline",115 % of control
same,T/C,"dose: 5.0 mg/kg/injection, schedule: Q01DX001 (ip), vehicle: other",109 % of control
same,T/C,"dose: 5.0 mg/kg/injection, schedule: Q01DX009 (ip), vehicle: Klucel (hydroxypropylcellulose) (HPC)",117 % of control
same,T/C,"dose: 5.0 mg/kg/injection, schedule: Q01DX009 (ip), vehicle: other",117 % of control
same,T/C,"dose: 5.0 mg/kg/injection, schedule: Q04DX003 (ip), vehicle: other",120 % of control
same,T/C,"dose: 6.6 mg/kg/injection, schedule: Q01DX009 (ip), vehicle: Klucel (hydroxypropylcellulose) (HPC)",110 % of control
same,T/C,"dose: 8.75 mg/kg/injection, schedule: Q01DX001 (ip), vehicle: saline",117 % of control
same,T/C,"dose: 8.75 mg/kg/injection, schedule: Q04DX003 (ip), vehicle: saline",123 % of control
same,T/C,"dose: 10.0 mg/kg/injection, schedule: Q01DX001 (ip), vehicle: other",111 % of control and 124 % of control
same,T/C,"dose: 10.0 mg/kg/injection, schedule: Q01DX009 (ip), vehicle: acetone",114 % of control
same,T/C,"dose: 10.0 mg/kg/injection, schedule: Q01DX009 (ip), vehicle: other",120 % of control
same,T/C,"dose: 10.0 mg/kg/injection, schedule: Q04DX003 (ip), vehicle: Klucel (hydroxypropylcellulose) (HPC)",117 % of control
same,T/C,"dose: 10.0 mg/kg/injection, schedule: Q04DX003 (ip), vehicle: other",118 % of control
same,T/C,"dose: 12.5 mg/kg/injection, schedule: Q01DX001 (ip), vehicle: saline",116 % of control
same,T/C,"dose: 17.5 mg/kg/injection, schedule: Q01DX001 (ip), vehicle: saline",116 % of control
same,T/C,"dose: 17.5 mg/kg/injection, schedule: Q04DX003 (ip), vehicle: saline",116 % of control
same,T/C,"dose: 20.0 mg/kg/injection, schedule: Q01DX001 (ip), vehicle: carboxymethylcellulose (CMC)",117 % of control
same,T/C,"dose: 20.0 mg/kg/injection, schedule: Q01DX001 (ip), vehicle: other",122 % of control
same,T/C,"dose: 20.0 mg/kg/injection, schedule: Q01DX009 (ip), vehicle: Klucel (hydroxypropylcellulose) (HPC)",117 % of control
same,T/C,"dose: 20.0 mg/kg/injection, schedule: Q01DX009 (ip), vehicle: acetone",110 % of control
same,T/C,"dose: 20.0 mg/kg/injection, schedule: Q04DX003 (ip), vehicle: Klucel (hydroxypropylcellulose) (HPC)",119 % of control
same,T/C,"dose: 20.0 mg/kg/injection, schedule: Q04DX003 (ip), vehicle: other",118 % of control
same,T/C,"dose: 25.0 mg/kg/injection, schedule: Q01DX001 (ip), vehicle: other",119 % of control
same,T/C,"dose: 25.0 mg/kg/injection, schedule: Q01DX001 (ip), vehicle: saline",115 % of control
same,T/C,"dose: 25.0 mg/kg/injection, schedule: Q01DX009 (ip), vehicle: Klucel (hydroxypropylcellulose) (HPC)",89 % of control
same,T/C,"dose: 26.4 mg/kg/injection, schedule: Q04DX003 (ip), vehicle: saline",124 % of control
same,T/C,"dose: 35.0 mg/kg/injection, schedule: Q01DX001 (ip), vehicle: Klucel (hydroxypropylcellulose) (HPC)",115 % of control
same,T/C,"dose: 40.0 mg/kg/injection, schedule: Q01DX001 (ip), vehicle: carboxymethylcellulose (CMC)",117 % of control
same,T/C,"dose: 40.0 mg/kg/injection, schedule: Q01DX009 (ip), vehicle: Klucel (hydroxypropylcellulose) (HPC)",87 % of control
same,T/C,"dose: 40.0 mg/kg/injection, schedule: Q01DX009 (ip), vehicle: other",88 % of control
same,T/C,"dose: 40.0 mg/kg/injection, schedule: Q04DX003 (ip), vehicle: other",115 % of control and 123 % of control
same,T/C,"dose: 40.0 mg/kg/injection, schedule: Q04DX003 (ip), vehicle: saline",119 % of control
same,T/C,"dose: 50.0 mg/kg/injection, schedule: Q01DX001 (ip), vehicle: Klucel (hydroxypropylcellulose) (HPC)",123 % of control
same,T/C,"dose: 50.0 mg/kg/injection, schedule: Q01DX001 (ip), vehicle: other",156 % of control
same,T/C,"dose: 75.0 mg/kg/injection, schedule: Q01DX001 (ip), vehicle: Klucel (hydroxypropylcellulose) (HPC)",112 % of control
same,T/C,"dose: 75.0 mg/kg/injection, schedule: Q01DX001 (ip), vehicle: other",110 % of control
same,T/C,"dose: 80.0 mg/kg/injection, schedule: Q01DX001 (ip), vehicle: carboxymethylcellulose (CMC)",112 % of control
same,T/C,"dose: 80.0 mg/kg/injection, schedule: Q01DX001 (ip), vehicle: other",114 % of control
same,T/C,"dose: 80.0 mg/kg/injection, schedule: Q04DX003 (ip), vehicle: other",87 % of control and 91 % of control
CCOC(=O)C1(C(=O)OCC)C2CC(C)=C(C)CC21 (configuration not stated),T/C,"dose: 50.0 mg/kg/injection, schedule: Q01DX009 (ip), vehicle: acetone",92 % of control
same,T/C,"dose: 100.0 mg/kg/injection, schedule: Q01DX009 (ip), vehicle: acetone",90 % of control
O=C1CC(c2ccccc2)C2(c3ccccc3)OC12 (configuration not stated),T/C,"dose: 100.0 mg/kg/injection, schedule: Q01DX001 (ip), vehicle: saline with Tween-80",101 % of control
same,T/C,"dose: 200.0 mg/kg/injection, schedule: Q01DX001 (ip), vehicle: saline with Tween-80",94 % of control
same,T/C,"dose: 400.0 mg/kg/injection, schedule: Q01DX001 (ip), vehicle: saline with Tween-80",111 % of control
CCCCCCCC(=O)Nc1c(C)cccc1C,T/C,[1],97 % of control
same,T/C,[2],93 % of control
same,T/C,"dose: 400.0 mg/kg/injection, schedule: Q04DX003 (ip), vehicle: saline with Tween-80",93 % of control
Ic1ccc(/C=C2\C=Cc3ccccc32)cc1,T/C,"dose: 100.0 mg/kg/injection, schedule: Q01DX001 (ip), vehicle: carboxymethylcellulose (CMC)",100 % of control
same,T/C,"dose: 200.0 mg/kg/injection, schedule: Q01DX001 (ip), vehicle: carboxymethylcellulose (CMC)",100 % of control
same,T/C,"dose: 400.0 mg/kg/injection, schedule: Q01DX001 (ip), vehicle: carboxymethylcellulose (CMC)",100 % of control
Nc1nc2c(ncn2-c2cccc(Cl)c2)c(=O)[nH]1,T/C,[1],95 % of control
same,T/C,[2],91 % of control
C=CCOc1ccnc(OCC=C)n1,T/C,[3],108 % of control
same,T/C,[4],105 % of control
same,T/C,[5],101 % of control
same,T/C,[6],102 % of control
same,T/C,"dose: 400.0 mg/kg/injection, schedule: Q01DX009 (ip), vehicle: saline",87 % of control
same,T/C,[7],105 % of control
CC(=O)Nc1ccc(N=C/C=C/c2ccccc2)cc1,T/C,"dose: 100.0 mg/kg/injection, schedule: Q01DX001 (ip), vehicle: saline",93 % of control
same,T/C,"dose: 200.0 mg/kg/injection, schedule: Q01DX001 (ip), vehicle: saline",94 % of control
same,T/C,"dose: 400.0 mg/kg/injection, schedule: Q01DX001 (ip), vehicle: saline",98 % of control
O=C(Nc1cccc2ccccc12)OCC(Cl)(Cl)Cl,T/C,"dose: 100.0 mg/kg/injection, schedule: Q01DX009 (ip), vehicle: carboxymethylcellulose (CMC)",97 % of control and 98 % of control
same,T/C,"dose: 100.0 mg/kg/injection, schedule: Q04DX002 (ip), vehicle: Klucel (hydroxypropylcellulose) (HPC)",108 % of control
same,T/C,"dose: 100.0 mg/kg/injection, schedule: Q04DX002 (ip), vehicle: carboxymethylcellulose (CMC)",108 % of control and 90 % of control
same,T/C,"dose: 100.0 mg/kg/injection, schedule: Q04DX003 (ip), vehicle: carboxymethylcellulose (CMC)",103 % of control
same,T/C,"dose: 200.0 mg/kg/injection, schedule: Q01DX009 (ip), vehicle: carboxymethylcellulose (CMC)",95 % of control and 90 % of control
same,T/C,"dose: 200.0 mg/kg/injection, schedule: Q04DX002 (ip), vehicle: Klucel (hydroxypropylcellulose) (HPC)",96 % of control
same,T/C,"dose: 200.0 mg/kg/injection, schedule: Q04DX002 (ip), vehicle: carboxymethylcellulose (CMC)",95 % of control and 97 % of control
same,T/C,"dose: 200.0 mg/kg/injection, schedule: Q04DX003 (ip), vehicle: carboxymethylcellulose (CMC)",97 % of control
same,T/C,"dose: 400.0 mg/kg/injection, schedule: Q01DX009 (ip), vehicle: carboxymethylcellulose (CMC)",95 % of control and 97 % of control
same,T/C,"dose: 400.0 mg/kg/injection, schedule: Q04DX002 (ip), vehicle: Klucel (hydroxypropylcellulose) (HPC)",108 % of control
same,T/C,"dose: 400.0 mg/kg/injection, schedule: Q04DX002 (ip), vehicle: carboxymethylcellulose (CMC)",97 % of control and 87 % of control
same,T/C,"dose: 400.0 mg/kg/injection, schedule: Q04DX003 (ip), vehicle: carboxymethylcellulose (CMC)",94 % of control
S=C([S-])N(Cc1ccccc1)Cc1ccccc1.S=C([S-])N(Cc1ccccc1)Cc1ccccc1.[Zn],T/C,"dose: 50.0 mg/kg/injection, schedule: Q01DX009 (ip), vehicle: saline",104 % of control
same,T/C,[3],102 % of control
same,T/C,[4],94 % of control
same,T/C,[5],104 % of control
same,T/C,[6],97 % of control
same,T/C,[7],89 % of control
